“And” between values parts separate entries of the source, which are not always exact repeats. Identical values can stand only once. Inconclusive results and toxic doses are left out.
Tested on: L1210 leukemia ip in BDF1 mice, survival T/C
Assay: NCI In Vivo Anticancer Drug Screen. Data for tumor model L1210 Leukemia (intraperitoneal) in B6D2F1 (BDF1) mice
Conditions: endpoint: mean survival time, higher = longer survival
Procedure, shortened: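 Ratio derived from survival: compound-dosed mice over vehicle-dosed mice, all bearing a transplantable tumor.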

[1] = dose: 100.0 mg/kg/injection, schedule: Q04DX003 (ip), vehicle: saline with Tween-80
[2] = dose: 200.0 mg/kg/injection, schedule: Q04DX003 (ip), vehicle: saline with Tween-80
[3] = dose: 400.0 mg/kg/injection, schedule: Q04DX003 (ip), vehicle: saline with Tween-80

Which results are given for `C=CCC(N)Cc1ccccc1` (stereo not drawn)?
T/C (dose: 6.25 mg/kg/injection, schedule: Q01DX009 (ip), vehicle: saline): 101 % of control; T/C (dose: 12.5 mg/kg/injection, schedule: Q01DX009 (ip), vehicle: saline): 113 % of control; T/C (dose: 25.0 mg/kg/injection, schedule: Q01DX009 (ip), vehicle: saline): 101 % of control; T/C (dose: 25.0 mg/kg/injection, schedule: Q04DX003 (ip), vehicle: saline): 96 % of control; T/C (dose: 50.0 mg/kg/injection, schedule: Q01DX009 (ip), vehicle: saline): 109 % of control; T/C (dose: 50.0 mg/kg/injection, schedule: Q04DX003 (ip), vehicle: saline): 105 % of control; T/C (dose: 100.0 mg/kg/injection, schedule: Q04DX003 (ip), vehicle: saline): 102 % of control

What does the source list for `CC1(C)N=CN=C(N)N1c1ccc(CCC(=O)Nc2ccc(S(=O)(=O)F)cc2)c(Cl)c1`?
T/C [1]: 114 % of control; T/C [2]: 112 % of control; T/C [3]: 109 % of control

How did the T/C (dose: 100.0 mg/kg/injection, schedule: Q01DX001 (ip), vehicle: other) turn out when `CC(C)COC(=O)c1cccc2c1-c1ccccc1C2=O` was run?
Its T/C is 96 % of control.

And the T/C (dose: 200.0 mg/kg/injection, schedule: Q01DX001 (ip), vehicle: other)?
The T/C was 87 % of control.

And the T/C (dose: 400.0 mg/kg/injection, schedule: Q01DX001 (ip), vehicle: other)?
Its T/C is 98 % of control.

`NC(N)=Nc1ccc(C(=O)Oc2ccc([N+](=O)[O-])cc2CN2CCCCC2)cc1` was tested. Which T/C (dose: 0.5 mg/kg/injection, schedule: Q04DX003 (ip), vehicle: water) did it give?
Its T/C is 102 % of control.

And the T/C (dose: 1.0 mg/kg/injection, schedule: Q04DX003 (ip), vehicle: water)?
Its T/C is 110 % of control.

What about the T/C (dose: 2.0 mg/kg/injection, schedule: Q04DX003 (ip), vehicle: water) of the same molecule?
The T/C was 96 % of control.

What about the T/C (dose: 3.12 mg/kg/injection, schedule: Q01DX009 (ip), vehicle: water) of the same molecule?
The T/C was 93 % of control.

What about the T/C (dose: 3.12 mg/kg/injection, schedule: Q04DX003 (ip), vehicle: water) of the same molecule?
The T/C was 105 % of control.

What about the T/C (dose: 4.0 mg/kg/injection, schedule: Q04DX003 (ip), vehicle: water) of the same molecule?
The T/C was 102 % of control.

What about the T/C (dose: 6.25 mg/kg/injection, schedule: Q01DX009 (ip), vehicle: water) of the same molecule?
Its T/C is 96 % of control.

What about the T/C (dose: 12.5 mg/kg/injection, schedule: Q01DX009 (ip), vehicle: water) of the same molecule?
Its T/C is 101 % of control.

What about the T/C (dose: 12.5 mg/kg/injection, schedule: Q04DX003 (ip), vehicle: water) of the same molecule?
The T/C was 108 % of control.

`O=C1C=CC(=O)N1c1nccs1` was tested. Which T/C [1] did it give?
Its T/C is 95 % of control.

And the T/C [2]?
Its T/C is 90 % of control.

What about the T/C [3] of the same molecule?
The T/C was 95 % of control.

How did the T/C (dose: 35.0 mg/kg/injection, schedule: Q01DX009 (ip), vehicle: water) turn out when `Nc1ccn([C@@H](C=O)O[C@@H](C=O)CO)c(=O)n1` was run?
Its T/C is 111 % of control.

And the T/C (dose: 35.0 mg/kg/injection, schedule: Q01DX Z (ip), vehicle: water)?
Its T/C is 107 % of control.

And the T/C (dose: 70.0 mg/kg/injection, schedule: Q01DX009 (ip), vehicle: water)?
Its T/C is 122 % of control.

What about the T/C (dose: 70.0 mg/kg/injection, schedule: Q01DX Z (ip), vehicle: water) of the same molecule?
Its T/C is 123 % of control.

And the T/C (dose: 140.0 mg/kg/injection, schedule: Q01DX009 (ip), vehicle: water)?
The T/C was 161 % of control.

For `C[P+](Cc1ccc([N+](=O)[O-])cc1)(c1ccccc1)c1ccccc1`, which T/C (dose: 12.5 mg/kg/injection, schedule: Q01DX009 (ip), vehicle: Klucel (hydroxypropylcellulose) (HPC)) is on record?
Its T/C is 99 % of control.

What about the T/C (dose: 12.5 mg/kg/injection, schedule: Q04DX003 (ip), vehicle: Klucel (hydroxypropylcellulose) (HPC)) of the same molecule?
The T/C was 100 % of control.

And the T/C (dose: 25.0 mg/kg/injection, schedule: Q01DX009 (ip), vehicle: Klucel (hydroxypropylcellulose) (HPC))?
The T/C was 90 % of control.

And the T/C (dose: 25.0 mg/kg/injection, schedule: Q04DX003 (ip), vehicle: Klucel (hydroxypropylcellulose) (HPC))?
The T/C was 86 % of control.

What about the T/C (dose: 50.0 mg/kg/injection, schedule: Q04DX003 (ip), vehicle: Klucel (hydroxypropylcellulose) (HPC)) of the same molecule?
Its T/C is 96 % of control.

What does the source list for `COc1ccc(NC(=O)Nc2onc(C)c2C)c(Cl)c1`?
T/C (dose: 100.0 mg/kg/injection, schedule: Q01DX001 (ip), vehicle: Klucel (hydroxypropylcellulose) (HPC)): 95 % of control; T/C (dose: 100.0 mg/kg/injection, schedule: Q01DX009 (ip), vehicle: Klucel (hydroxypropylcellulose) (HPC)): 94 % of control and 100 % of control; T/C (dose: 100.0 mg/kg/injection, schedule: Q04DX002 (ip), vehicle: Klucel (hydroxypropylcellulose) (HPC)): 101 % of control; T/C (dose: 100.0 mg/kg/injection, schedule: Q04DX003 (ip), vehicle: Klucel (hydroxypropylcellulose) (HPC)): 87 % of control; T/C (dose: 200.0 mg/kg/injection, schedule: Q01DX001 (ip), vehicle: Klucel (hydroxypropylcellulose) (HPC)): 97 % of control; T/C (dose: 200.0 mg/kg/injection, schedule: Q01DX009 (ip), vehicle: Klucel (hydroxypropylcellulose) (HPC)): 95 % of control and 88 % of control; T/C (dose: 200.0 mg/kg/injection, schedule: Q04DX002 (ip), vehicle: Klucel (hydroxypropylcellulose) (HPC)): 95 % of control and 101 % of control; T/C (dose: 200.0 mg/kg/injection, schedule: Q04DX003 (ip), vehicle: Klucel (hydroxypropylcellulose) (HPC)): 97 % of control; T/C (dose: 400.0 mg/kg/injection, schedule: Q01DX001 (ip), vehicle: Klucel (hydroxypropylcellulose) (HPC)): 104 % of control; T/C (dose: 400.0 mg/kg/injection, schedule: Q01DX009 (ip), vehicle: Klucel (hydroxypropylcellulose) (HPC)): 93 % of control and 95 % of control; T/C (dose: 400.0 mg/kg/injection, schedule: Q04DX002 (ip), vehicle: Klucel (hydroxypropylcellulose) (HPC)): 96 % of control; T/C (dose: 400.0 mg/kg/injection, schedule: Q04DX003 (ip), vehicle: Klucel (hydroxypropylcellulose) (HPC)): 88 % of control; T/C (dose: 4000.0 mg/kg/injection, schedule: Q04DX002 (ip), vehicle: Klucel (hydroxypropylcellulose) (HPC)): 90 % of control

Source: PubChem BioAssay AID248 (DTP/NCI, 2004)
